Experimental data from patent publication US8680153B2, “Method for correcting a lipid imbalance in a subject” (The Royal Institution for the Advancement of …, priority 2005, dated 2014).
Values joined by “and” are separate entries in the source; they are usually repeats but may differ in a detail not shown here. Equal entries are not always repeated.

Columns and labels:
ceramide levels = assay: Ceramide levels by ELISA in lung and plasma of uninfected mice, fenretinide diet supplementation; format: in vivo; conditions: 5 mg/kg per day in diet, 28 days, 5 mg/kg/day
Excerpt: Animals. Inbred C57BL/6-Cftr mice breeding pairs, heterozygous (HZ) at the Cftr locus, were used. All babies were genotyped between days 12 and 14 of their life. The animals were kept in cages with sterile corn bedding (Anderson, Bestmonro, La.) and maintained in ventilated racks (Lab Products). Mice were fed with either the NIH-31-modified irradiated mouse diet (Harlan Teklad, Indianapolis, Ind.) or a liquid diet starting at 14 days of age (Peptamen liquid diet; Nestle Canada, Brampton, ON). The liquid diet were freshly prepared every morning and provided in 50-mL centrifuge tubes (Fisher Scientific Ltd, Nepean, ON). Age- and gender-matched C57BL/6-Cftr+/+ (wild-type) mice, (female; n=10, male; n=31) and C57BL/6-Cftr−/− (Cftr-KO) mice (female; n=8, male; n=18) were murine pathogen-, Helicobacter- and parasite-free. They were housed (1-4 animals/cage), bred and maintained in a barrier facility unit under specific pathogen-free conditions. Experimental procedures with the mice were conducted in accordance with the Canadian Council on Animal Care guidelines and with the approval of the Animal Care Committee of the McGill University Health Center, Montreal, Quebec, Canada.
Fenretinide Diet Supplementation. Examples 2 to 6: fenretinide (Sigma-Aldrich, Oakville, ON) powder was resuspended in 95% ethanol and subsequently incorporated in the Peptamen liquid diet. It was protected from light and kept at 4° C. before being given to the mice (5 mg/kg per day per mouse). Mock-treated diets were prepared similarly by adding ethanol to the Peptamen diet but omitting the fenretinide supplementation. The diet was given every morning for 28 consecutive days with specific monitoring of the quantity consumed by the mice in each cage. Examples 7 to 12: fenretinide powder was kindly provided by Dr. Robert Smith (NIH; Bethesda, Md., USA). Fenretinide was resuspended in 95% ethanol to make a 2 μg/μL concentration. Approximately 40 μL of this preparation was incorporated into the Peptamen liquid diet (5 mg/kg per day per mouse). The prepared food containing fenretinide was then stored in the dark at 4° C. for no more than 3 hours prior to being administered to the mice. To ensure that the entire drug dose was consumed, the mice were given 10 mL of fenretinide-treated Peptamen, which represents ⅔ of the daily mouse food consumption, in the late afternoon. The remaining 5 mL of Peptamen (without fenretinide) was given the following morning. Mice were treated twice a week for 4 weeks. During the treatment period each mouse was kept in a separate cage (including WT mice) and was monitored to ensure that the entire amount of Peptamen containing the fenretinide or with out was consumed. The diet for the mock-treated control group was prepared and administered similarly to that described above, by adding the same volume of ethanol to the Peptamen diet but omitting the fenretinide supplementation.
Ceramide/Sphingolipids analysis. The concentration of ceramide in the (lung, liver, ileum, pancreas homogenates) and plasma from mice and humans were determined by ELISA^39;40 on separated lipids samples by thin layer chromatography, as described above. The phospholipids from the dry silica were resuspended in ethanol and used to coat Nunc plates specific for lipid binding. Plates were then washed, incubated with blocking buffer for 1 hr at 37° C. […]

[1] = test system: DHA levels, DHA/AA ratio, ceramide levels, AA levels; assay: Systemic lipid parameters in several organs, biweekly treatment for 4 weeks; format: in vivo, mice; conditions: four-week biweekly treatment
Protocol: Fenretinide Diet Supplementation. Examples 2 to 6: fenretinide (Sigma-Aldrich, Oakville, ON) powder was resuspended in 95% ethanol and subsequently incorporated in the Peptamen liquid diet. It was protected from light and kept at 4° C. before being given to the mice (5 mg/kg per day per mouse). Mock-treated diets were prepared similarly by adding ethanol to the Peptamen diet but omitting the fenretinide supplementation. The diet was given every morning for 28 consecutive days with specific monitoring of the quantity consumed by the mice in each cage. Examples 7 to 12: fenretinide powder was kindly provided by Dr. Robert Smith (NIH; Bethesda, Md., USA). Fenretinide was resuspended in 95% ethanol to make a 2 μg/μL concentration. Approximately 40 μL of this preparation was incorporated into the Peptamen liquid diet (5 mg/kg per day per mouse). […] During the treatment period each mouse was kept in a separate cage (including WT mice) and was monitored to ensure that the entire amount of Peptamen containing the fenretinide or with out was consumed. […]
Ceramide/Sphingolipids analysis. The concentration of ceramide in the (lung, liver, ileum, pancreas homogenates) and plasma from mice and humans were determined by ELISA^39;40 on separated lipids samples by thin layer chromatography, as described above. […]

In the case of `CC1=C(/C=C/C(C)=C/C=C/C(C)=C/C(=O)Nc2ccc(O)cc2)C(C)(C)CCC1` [fenretinide, all-trans-N-(4-hydroxyphenyl) retinamide], the “Ceramide levels, fold-increase (FEN-treated over CTRL), Lung” value (“Ceramide levels, fold-increase … Lung” for short) (ceramide levels; Cftr-KO mice) is reported as 7.0 fold and 7.0 (n = 3) fold, the “Ceramide levels, fold-increase (FEN-treated over CTRL), Plasma” value (“Ceramide levels, fold-increase … Plasma” below) (ceramide levels; Cftr-KO mice) is reported as 6.9 fold and 6.9 (n = 3) fold and the “Ceramide levels, fold-increase … Lung” value (ceramide levels; HZ mice) is reported as 2.1 fold and 2.1 (n = 3) fold. The “Ceramide levels, fold-increase … Plasma” value (ceramide levels; HZ mice) was 2.7 fold and 2.7 (n = 3) fold, the “Ceramide levels, fold-increase … Lung” value (ceramide levels; WT mice) was 1.4 fold and 1.4 (n = 10) fold and the “Ceramide levels, fold-increase … Plasma” value (ceramide levels; WT mice) was 1.6 fold and 1.6 (n = 12) fold. The “Defect/imbalance in DHA levels, DHA/AA ratio and ceramide levels in all organs” value ([1]; Cftr-KO and HZ mice) was “effective at correcting, at least partially” and the “AA levels in control organs (heart, kidney and spleen)” value ([1]; Cftr-KO mice) was “decreases the AA levels to normal”.
